In patent US6730666B1, “Pharmaceutical compositions comprising porphyrins and some novel porphyrin derivatives” (Yeda Research and Development Co. Ltd., priority 1998, dated 2004):

How the values were obtained:
smooth muscle cells = experiment: Smooth muscle cell proliferation induced by bFGF; assay type: cell-based; settings: 2 μg/ml or 20 μg/ml of P1; bFGF 10 ng/ml; FIG. 16
Procedure: In order to determine the ability of P1 to inhibit the biological activity of bFGF on cell proliferation, smooth muscle cells were grown in 24-well plates in the presence of bFGF (10 ng/ml) and in the presence of 2 μg/ml or 20 μg/ml of P1. Cell number was determined daily by counting cell samples under a microscope.

FGFR-1 = FGFR-1 (Mus musculus, UniProt P16092); experiment: Covalent cross-linking of 125I-bFGF to CHO cells transfected with FGFR-1; assay type: binding; design: expressed in transfected cells; host or cells: CHO cells deficient in heparan sulfate; settings: FIG. 2
Procedure: Binding of ^125I-bFGF to confluent monolayers of PGFR-1 expressing CHO cells or ^125I-FGF9 to FGFR-3 expressing CHO cells, was performed as described in Methods, section (iv), in the presence or absence of P1 (Inhibitor). After 90 min, disuccinylimidyl suberate [DSS]
(iv) Binding of ^125I-bFGF and ^125I-FGF9 to cells. Confluent cultures of CHO cells expressing FGFR-1(Yayon et al, 1991) or FGFR-3 (Hecht et al, 1995) in 24-well plates (Falcon) were precooled and washed twice with cold DMEM supplemented with 20 mM Hepes (pH 7.5) and 0.1% bovine serum albumin (DMEM/BSA). They were then incubated for 1.5 h at 4° C. with ^125I-bFGF (2 ng/ml) and increasing concentrations of porphyrin/corrole compound. The binding medium was discarded and the cells were washed once with ice-cold DMEM/BSA and twice with cold PBS (pH 7.5) containing 1.6M NaCl. […] Non-specific binding was determined in the presence of a 100-fold excess of unlabeled bFGF.
In order to unequivocally determine the specificity of the binding inhibition, chemical cross-linking of ^125I-bFGF and ^125I-FGF9 to CHO cells transfected with FGFR-1 and FGFR-3, respectively, was carried out as described in Methods, section (iv), in the absence or presence of increasing concentrations of P1.

FGFR-3 = target: T1, FGFR-3 (Homo sapiens, UniProt P22607); experiment: Binding of 125I-FGF9 to immobilized soluble FGFR-3 (FR-3-AP); settings: FIG. 11
T1 construct: soluble FGFR-3 ectodomain alkaline phosphatase fusion protein (FR-3-AP); made in house; host or cells: NIH 3T3 cells (conditioned medium)
T1 sequence (P22607 23-375 limits assumed): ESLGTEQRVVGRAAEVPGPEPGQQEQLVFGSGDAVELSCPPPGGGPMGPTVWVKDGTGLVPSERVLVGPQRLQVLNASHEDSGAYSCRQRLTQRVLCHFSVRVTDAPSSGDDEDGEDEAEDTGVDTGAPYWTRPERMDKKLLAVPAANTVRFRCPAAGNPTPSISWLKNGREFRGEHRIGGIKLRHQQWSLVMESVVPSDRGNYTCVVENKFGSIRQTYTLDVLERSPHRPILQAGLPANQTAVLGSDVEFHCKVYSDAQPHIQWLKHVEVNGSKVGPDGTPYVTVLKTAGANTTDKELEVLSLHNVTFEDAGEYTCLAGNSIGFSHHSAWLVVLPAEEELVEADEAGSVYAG
Procedure: Incubations were performed in the presence of 100 ng/ml heparin and increasing concentrations of porphyrins. […] Results represent the mean value in one of at least two independent experiments.
(iii) Binding of ^125I-bFGF or ^125I-FGF9 to s luble FGFR-1 or FGFR-3. Conditioned medium from NIH 3T3 cells secreting soluble FRAP or FGFR-3 FR-3-AP, was incubated for 45 min at room temperature with rabbit anti-human placental AP antibodies (generated as described in Ornitz et al, 1991) prebound to agarose-protein A beads Pierce). The FGFR-1 or FGFR-3-coupled beads were washed three times with 1 ml HNTG and incubated with 2 ng/ml of ^125I-FGF, 1 μg/ml of heparin and porphyrin/corrole compound at different concentrations for 1 h at room temperature. High affinity-bound ^125I-bFGF was determined by counting of the samples in a γ-counter.
Thus, the compounds were tested for their capacity to inhibit binding of a soluble FGFR-3 ectodomain alkaline phosphatase fusion protein (FR-3-AP) to FGF-9, utilizing a cell free system, similar to the one described for FGFR-1 in Example 1 above, and measuring the binding of radiolabeled ^125I-FGF-9 to soluble FGFR-3.

ERK = ERK phosphorylation in FGFR-3 expressing cells induced by FGF-9; assay type: cell-based; settings: FIG. 15B
Procedure: (viii) Immunoblots. To the overnight serum-starved cells (2 plates for each treatment), 500 μl of F12^++ medium were added which either contained or not the respective porphyrin or corrole compound in a final concentration of […] for 40 min at 37° C. One of the two plates of each treatment was then stimulated with FGF9 (+) (75 ng/ml) and to the second plate only medium (−) was added for 10 min at 37° C. The cells were washed twice with PBS. 600 μl of SBN lysis buffer containing 1% NP-40 and 1 mM vanadate were added and left on ice for 10 min. The plates were then scraped and left on ice for additional 10 min. The lysate was span down in Eppendorf centrifuge for 15 min, 15000 rpm at 4° C. The supernatants were kept and Bradford protein determinant on assay was performed in the samples. 500 μg protein from each sample were taken for immunoprecipitation with 7.5 μl antibody against FGFR-3, 4 hr at 4° C.
These findings support the notion that the porphyrins can serve for treating FGFR-3 related growth disorders. ERK1 and ERK2 are two isoforms of ERK.

FGFR-1, sequence (P16092 22-822): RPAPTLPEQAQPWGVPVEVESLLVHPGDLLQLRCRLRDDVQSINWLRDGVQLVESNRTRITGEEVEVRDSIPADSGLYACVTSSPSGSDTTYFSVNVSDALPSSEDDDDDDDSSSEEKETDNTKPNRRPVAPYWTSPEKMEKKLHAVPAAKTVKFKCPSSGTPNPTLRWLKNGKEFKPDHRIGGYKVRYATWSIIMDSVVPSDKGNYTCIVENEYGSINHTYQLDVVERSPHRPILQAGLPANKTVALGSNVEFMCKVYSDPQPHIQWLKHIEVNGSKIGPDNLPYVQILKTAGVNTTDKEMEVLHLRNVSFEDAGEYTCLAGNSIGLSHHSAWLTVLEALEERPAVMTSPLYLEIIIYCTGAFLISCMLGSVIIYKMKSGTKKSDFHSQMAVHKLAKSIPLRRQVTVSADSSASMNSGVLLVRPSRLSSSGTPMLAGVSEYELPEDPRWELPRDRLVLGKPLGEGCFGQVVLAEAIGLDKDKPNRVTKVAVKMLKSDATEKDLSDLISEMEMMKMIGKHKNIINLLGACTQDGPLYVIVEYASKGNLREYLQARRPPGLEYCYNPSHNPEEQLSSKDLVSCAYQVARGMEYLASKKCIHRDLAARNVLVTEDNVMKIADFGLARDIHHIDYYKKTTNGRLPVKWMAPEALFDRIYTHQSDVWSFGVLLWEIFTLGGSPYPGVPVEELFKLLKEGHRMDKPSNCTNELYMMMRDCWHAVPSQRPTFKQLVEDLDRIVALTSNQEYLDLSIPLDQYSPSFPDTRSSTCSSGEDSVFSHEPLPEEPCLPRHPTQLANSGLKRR

Relative potency in FGF-9/FGFR-3 soluble receptor assay, in words (FGFR-3) | Compound | Effect on smooth muscle cell proliferation induced by bFGF (smooth muscle cells) | Inhibition of bFGF-receptor complex formation (cross-linking), in words (FGFR-1) | Effect on ERK activation (ERK)
– | C[n+]1ccc(-c2c3nc(c(-c4cc[n+](C)cc4)c4ccc([nH]4)c(-c4cc[n+](C)cc4)c4nc(c(-c5cc[n+](C)cc5)c5ccc2[nH]5)C=C4)C=C3)cc1 [Compound P1, 5,10,15,20-Tetrakis(N-methyl-4-pyridylium)-21H,23H-porphine tetra-p-tosylate] | strong inhibitory effect | inhibition of formation of a typical bFGF-receptor complex | –
more potent | C[n+]1ccc(-c2c3nc(c(-c4cc[n+](C)cc4)c4ccc([nH]4)c(-c4c(F)c(F)c(F)c(F)c4F)c4nc(c(-c5cc[n+](C)cc5)c5ccc2[nH]5)C=C4)C=C3)cc1.[I-].[I-].[I-] [Compound P16, 5-Pentafluorophenyl-10,15,20-tris(N-methyl-4-pyridylium)-21H,23H-porphine triiodide] | – | – | clear reduction in the activation
